Converted amounts (≈) assume the structure as drawn. “And” between values parts separate entries of the source, which are not always exact repeats. Identical values can stand only once. “Also recorded” adds a separate entry of the source. Each block holds one compound with its values, some of them ahead of it.
Key:
Type in all cases: physicochemical
[1] = Preliminary solubility investigation of amorphous cethromycin in solvents; conditions: for Solubility: 50 °C, organic solvent or mixture, thermodynamic from solid, heated to 50° C.
Protocol: Amorphous cethromycin (25 mg) in HPLC vials was treated with increasing volumes of solvent until the material fully dissolved or until a maximum of 60 vol (1.5 ml) had been added. After each addition of solvent, the vials were stirred and gently heated to 50° C. before the addition of a new aliquot of solvent. […] All solids were then isolated by filtration and dried under suction. Antisolvent (n-heptane, 10 or 20 vol) was added to any solutions and the resulting gums were matured in a chamber switching from 25° C. to 50° C. every four hours. All isolated solids were analysed by PXRD.

[2] = Thermodynamic solubility (24 hours) in DI water
Protocol: (§1) Sufficient sample was suspended in 0.25 ml media for a maximum anticipated concentration of ca. 40 mg/ml of the free form of the compound. The resulting suspensions were then shaken at 25° C./750 rpm for 24 hours. The pH of samples suspended in PBS pH 7.4 were checked and adjusted if necessary (>0.05 change in pH) after 2 hours. After equilibration, the appearance was noted and the pH of the saturated solution was measured. Samples were then filtered through a glass ‘C’ fibre filter (Particle retention 1.2 μm). Samples suspended in PBS pH 7.4 buffer was diluted 10 times with PBS buffer and samples suspended in DI water diluted 100 times with DI water.

[3] = Kinetic solubility (2 hours) in SGF media
Protocol: Sufficient sample was suspended in 0.25 ml media for a maximum anticipated concentration of ca. 40 mg/ml of the free form of the compound. The resulting suspensions were then shaken at 25° C./750 rpm for 2 hours. After equilibration, the appearance was noted, and the pH of the saturated solution was measured. Samples were then filtered through a glass ‘C’ fibre filter (particle retention 1.2 μm). All the samples were diluted 100 times with SGF media. […] Different volumes of the standard and diluted sample solutions were injected.

[4] = PXRD of residues undissolved after solubility analysis
Protocol: PXRD analysis was performed on residues that remained undissolved after the solubility analysis to check for changes in solid form.

[5] = Thermodynamic solubility (24 hours) in PBS media; conditions: PBS pH 7.4, 24 hr (Table 33)
Protocol: as §1

[6] = Storage stability at 40° C./75% RH and 25° C./97% RH (PXRD, HPLC, NMR)
Protocol: Studies were performed on various cethromycin forms in order to determine stability for storage.

[7] = Solubility assessment of amorphous cethromycin chloride in solvents at 25° C.
[8] = Variable-temperature PXRD / thermal behaviour of acetate pattern 1; conditions: after VT PXRD
Protocol: For variable temperature (VT-XRPD) experiments samples were mounted on an Anton Paar DHS 900 hot stage at ambient conditions. The sample was then heated to the appropriate temperature at 20° C./min and subsequently held isothermally for 1 minute before data collection. Samples were prepared and analysed on a silicon wafer mounted to the hot stage using a heat-conducting paste.
In order to investigate this further a VT PXRD experiment on this material was carried out. On heating, the original white powder converts first to a translucent solid by 130° C., then to a translucent white solid by 170° C. This conversion is accompanied by loss of the original diffraction pattern is lost and appearance of a new diffraction pattern. […] The material is stable at RT.

Solubility ([1]; 2-propanol, 10 vol): > 100 mg/mL | Solubility in solvents ([1]; 10 vol of THF:H2O (9:1), 2-propanol, EtOH, EtOAc, acetone, MeCN, THF, TBME and DCM): readily soluble | Solubility ([1]; DCM, 10 vol): > 100 mg/mL | Solubility ([1]; EtOAc, 10 vol): > 100 mg/mL | Solubility ([1]; EtOH, 10 vol): > 100 mg/mL | Solubility ([1]; Hept (heptane), Hept, 10 vol): < 100 mg/mL | Solubility ([1]; Hept (heptane), Hept, 20 vol): < 50 mg/mL | Solubility ([1]; Hept (heptane), Hept, 30 vol): < 33.3 mg/mL | Solubility ([1]; Hept (heptane), Hept, 40 vol): < 25 mg/mL | Solubility ([1]; Hept (heptane), Hept, 50 vol): < 20 mg/mL | Solubility ([1]; Hept (heptane), Hept, 60 vol): < 16.7 mg/mL | Solubility ([1]; MeCN, 10 vol): > 100 mg/mL | Solubility ([1]; TBME, 10 vol): > 100 mg/mL | Solubility ([1]; THF, 10 vol): > 100 mg/mL | Solubility ([1]; THF:H2O (9:1), THF:H2O (9:1), 10 vol): > 100 mg/mL | Solubility ([1]; acetone, 10 vol): > 100 mg/mL | pH of the saturated solution, thermodynamic solubility in DI water ([2]; DI water, 24 hours): 7.0 | solubility thermodynamic at 24 h ([2]; thermodynamic from solid, DI water, 24 hours, 25° C.): 0.4 mg/mL (≈ 0.522 mM) | solubility kinetic at 2 h ([3]; simulated gastric fluid, thermodynamic from solid, 2 hours, 25° C.): 25 mg/mL (≈ 32.6 mM)
Compound: CC[C@H]1OC(=O)[C@H](C)C(=O)[C@H](C)[C@@H](O[C@@H]2O[C@H](C)C[C@H](N(C)C)[C@H]2O)[C@](C)(OC/C=C/c2cnc3ccccc3c2)C[C@@H](C)C(=O)[C@H](C)[C@H]2NC(=O)O[C@@]21C [Cethromycin, (3aS,4R,7R,9R,10R,11R,13R,15R,15aR)-10-(((2S,3R,4S,6R)-4-(dimethylamino)-3-hydroxy-6-methyltetrahydro-2H-pyran-2-yl)oxy)-4-ethyl-3a,7,9,11,13,15-hexamethyl-11-(((E)-3-(quinolin-3-yl)allyl)oxy)octahydro-2H-[1]oxa-cyclotetradecino[4,3-d]oxazole-2,6,8,14(1H,7H,9H)-tetraone]

Compound: CCC1OC(=O)C(C)C(=O)C(C)C(OC2OC(C)CC(N(C)C)C2O)C(C)(OCC=Cc2cnc3ccccc3c2)CC(C)C(=O)C(C)C2NC(=O)OC12C (stereo not drawn) [Free form]
PXRD of Residues ([4]; PBS pH 7.4, 24 hr): freebase pattern 2 | PXRD of Residues ([4]; SGF media, 2 hr): amorphous | Avg Sol'y [5]: 2.0 mg/mL | Sol'y [5]: 2.0 mg/mL and 1.9 mg/mL | pH at 24 hrs [5]: 6.8 | Avg Sol'y ([2]; DI Water, 24 hr (Table 34)): 0.41 mg/mL | Sol'y ([2]; DI Water, 24 hr (Table 34)): 0.47 mg/mL and 0.35 mg/mL | pH at 24 hrs ([2]; DI Water, 24 hr (Table 34)): 8.1 | Avg Sol'y ([3]; 2 hr (Table 32)): 25 mg/mL | Sol'y ([3]; 2 hr (Table 32)): 24 mg/mL | pH at 2 hrs ([3]; 2 hr (Table 32)): 7.6 and 7.5

Compound: CCC1OC(=O)C(C)C(=O)C(C)C(OC2OC(C)CC(N(C)C)C2O)C(C)(OCC=Cc2cnc3ccccc3c2)CC(C)C(=O)C(C)C2NC(=O)OC12C.Cl (stereo not drawn) [amorphous cethromycin chloride]
Storage at 40° C./75% RH for 9 days (PXRD) ([6]; 9 days, Batch D): did not crystallise; also recorded: amorphous | Solubility in selected solvents ([7]; 18 solvents): soluble in 10 of the 18 solvents | Solubility ([7]; Acetone, 1 vol): ✓ (dissolved) | Solubility ([7]; EtOAc, 1 vol): x (not dissolved/too dry to slurry) | Solubility ([7]; EtOAc, 2 vol): x (not dissolved/too dry to slurry) | Solubility ([7]; EtOAc, 3 vol): x (not dissolved/too dry to slurry) | Solubility ([7]; EtOAc, 4 vol): x (not dissolved/too dry to slurry) | Solubility ([7]; EtOAc, 5 vol): ✓o (slurry) | Solubility ([7]; EtOH/H2O (10%), 1 vol): ✓ (dissolved) | Solubility ([7]; Ethanol, 1 vol): ✓ (dissolved) | Solubility ([7]; Hept, 1 vol): x (not dissolved/too dry to slurry) | Solubility ([7]; Hept, 2 vol): x (not dissolved/too dry to slurry) | Solubility ([7]; Hept, 3 vol): x (not dissolved/too dry to slurry) | Solubility ([7]; Hept, 4 vol): x (not dissolved/too dry to slurry) | Solubility ([7]; Hept, 5 vol): x (not dissolved/too dry to slurry) | Solubility ([7]; Hept, 10 vol): ✓o (slurry) | Solubility ([7]; MEK, 1 vol): x (not dissolved/too dry to slurry) | Solubility ([7]; MEK, 2 vol): x (not dissolved/too dry to slurry) | Solubility ([7]; MEK, 3 vol): x (not dissolved/too dry to slurry) | Solubility ([7]; MEK, 4 vol): x (not dissolved/too dry to slurry) | Solubility ([7]; MEK, 5 vol): ✓o (slurry) | Solubility ([7]; MIBK, 1 vol): x (not dissolved/too dry to slurry) | Solubility ([7]; MIBK, 2 vol): x (not dissolved/too dry to slurry) | Solubility ([7]; MIBK, 3 vol): x (not dissolved/too dry to slurry) | Solubility ([7]; MIBK, 4 vol): x (not dissolved/too dry to slurry) | Solubility ([7]; MIBK, 5 vol): ✓o (slurry) | Solubility ([7]; MTBE, 1 vol): x (not dissolved/too dry to slurry) | Solubility ([7]; MTBE, 2 vol): x (not dissolved/too dry to slurry) | Solubility ([7]; MTBE, 3 vol): x (not dissolved/too dry to slurry) | Solubility ([7]; MTBE, 4 vol): x (not dissolved/too dry to slurry) | Solubility ([7]; MTBE, 10 vol): ✓o (slurry) | Solubility ([7]; MeCN, 1 vol): ✓ (dissolved) | Solubility ([7]; MeOH, 1 vol): ✓ (dissolved) | Solubility ([7]; THF, 1 vol): x (not dissolved/too dry to slurry) | Solubility ([7]; THF, 2 vol): x (not dissolved/too dry to slurry) | Solubility ([7]; THF, 3 vol): x (not dissolved/too dry to slurry) | Solubility ([7]; THF, 4 vol): x (not dissolved/too dry to slurry) | Solubility ([7]; THF, 5 vol): ✓ (dissolved) | Solubility ([7]; THF/H2O (10%), 1 vol): ✓ (dissolved) | Solubility ([7]; Toluene, 1 vol): x (not dissolved/too dry to slurry) | Solubility ([7]; Toluene, 2 vol): x (not dissolved/too dry to slurry) | Solubility ([7]; Toluene, 3 vol): x (not dissolved/too dry to slurry) | Solubility ([7]; Toluene, 4 vol): x (not dissolved/too dry to slurry) | Solubility ([7]; Toluene, 5 vol): x (not dissolved/too dry to slurry) | Solubility ([7]; Toluene, 10 vol): ✓o (slurry) | Solubility ([7]; cHex, 1 vol): x (not dissolved/too dry to slurry) | Solubility ([7]; cHex, 2 vol): x (not dissolved/too dry to slurry) | Solubility ([7]; cHex, 3 vol): x (not dissolved/too dry to slurry) | Solubility ([7]; cHex, 4 vol): x (not dissolved/too dry to slurry) | Solubility ([7]; cHex, 5 vol): x (not dissolved/too dry to slurry) | Solubility ([7]; cHex, 10 vol): ✓o (slurry) | Solubility ([7]; iBuOH, 1 vol): ✓ (dissolved) | Solubility ([7]; iPrOAc, 1 vol): x (not dissolved/too dry to slurry) | Solubility ([7]; iPrOAc, 2 vol): x (not dissolved/too dry to slurry) | Solubility ([7]; iPrOAc, 3 vol): x (not dissolved/too dry to slurry) | Solubility ([7]; iPrOAc, 4 vol): x (not dissolved/too dry to slurry) | Solubility ([7]; iPrOAc, 5 vol): x (not dissolved/too dry to slurry) | Solubility ([7]; iPrOAc, 10 vol): ✓o (slurry) | Solubility ([7]; iPrOH, 1 vol): ✓ (dissolved) | Solubility ([7]; iPrOH/H2O (10%), 1 vol): ✓ (dissolved)

HPLC Purity after storage at 40° C./75% RH for 7 days ([6]; 7 days): 96.6% | PXRD after storage at 40° C./75% RH for 7 days ([6]; 7 days, made from acetate pattern 1 by heating to 150° C.): freebase pattern 1 | Stability of the form at RT [8]: stable at RT
Compound: CC[C@H]1OC(=O)[C@H](C)C(=O)[C@H](C)[C@@H](O[C@@H]2O[C@H](C)C[C@H](N(C)C)[C@H]2O)[C@](C)(OCC=Cc2cnc3ccccc3c2)C[C@@H](C)C(=O)[C@H](C)[C@H]2NC(=O)O[C@@]21C [freebase pattern 1]
